Test results taken from patent US20240150377A1, “MODULATORS OF CYSTIC FIBROSIS TRANSMEMBRANE CONDUCTANCE REGULATOR” (VERTEX PHARMACEUTICALS INCORPORATED, priority 2020, published 2024).

How the values were obtained:
CFTR [1] = molecular target: T1, CFTR (Homo sapiens, UniProt P13569); test: Membrane potential dye, Enteroid Assay B; assay type: cell-based; conditions: for Ent. B Max Activity: chloride transport as % of triple combination control (Enteroid Assay B); for EC50: read-out: Ent. B EC50
Summary of the method: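 Fluorescence read over 15 min after chloride-free stimulation (10 μM forskolin, 100 μM IBMX, 300 nM Compound III) gave chloride transport, reported as % activity versus a triple-corrector/potentiator control. Beforehand, human enteroid cells had 18-24 h compound exposure at 37° C and 25 min methyl oxonol dye loading at room temperature.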

CFTR [2] = molecular target: T1, CFTR; test: Membrane potential dye, Enteroid Assay A; assay type: cell-based; conditions: for Ent. A Max Activity: chloride transport as % of triple combination control (Enteroid Assay A); for EC50: read-out: Ent. A EC50
Summary of the method: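 % Activity: chloride transport relative to a 3 μM/3 μM corrector pair plus 300 nM acute potentiator control. Primary human enteroid cells, 18-24 h compound exposure at 37 °C; membrane potential dye (methyl oxonol) fluorescence over 15 min after forskolin (10 μM)/IBMX (100 μM)/Compound III (300 nM) stimulation in chloride-free buffer.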

[3] = Table 6, human enteroid cells, 18-24 hours, acute 10 μM forskolin and 300 nM ivacaftor
[4] = Table 8, human enteroid cells, 18-24 hours, acute 10 μM forskolin and 300 nM ivacaftor
[5] = Table 7, human enteroid cells, 18-24 hours, acute 10 μM forskolin and 300 nM ivacaftor

T1 sequence (P13569 with tags, fused parts or gaps DEL508-508): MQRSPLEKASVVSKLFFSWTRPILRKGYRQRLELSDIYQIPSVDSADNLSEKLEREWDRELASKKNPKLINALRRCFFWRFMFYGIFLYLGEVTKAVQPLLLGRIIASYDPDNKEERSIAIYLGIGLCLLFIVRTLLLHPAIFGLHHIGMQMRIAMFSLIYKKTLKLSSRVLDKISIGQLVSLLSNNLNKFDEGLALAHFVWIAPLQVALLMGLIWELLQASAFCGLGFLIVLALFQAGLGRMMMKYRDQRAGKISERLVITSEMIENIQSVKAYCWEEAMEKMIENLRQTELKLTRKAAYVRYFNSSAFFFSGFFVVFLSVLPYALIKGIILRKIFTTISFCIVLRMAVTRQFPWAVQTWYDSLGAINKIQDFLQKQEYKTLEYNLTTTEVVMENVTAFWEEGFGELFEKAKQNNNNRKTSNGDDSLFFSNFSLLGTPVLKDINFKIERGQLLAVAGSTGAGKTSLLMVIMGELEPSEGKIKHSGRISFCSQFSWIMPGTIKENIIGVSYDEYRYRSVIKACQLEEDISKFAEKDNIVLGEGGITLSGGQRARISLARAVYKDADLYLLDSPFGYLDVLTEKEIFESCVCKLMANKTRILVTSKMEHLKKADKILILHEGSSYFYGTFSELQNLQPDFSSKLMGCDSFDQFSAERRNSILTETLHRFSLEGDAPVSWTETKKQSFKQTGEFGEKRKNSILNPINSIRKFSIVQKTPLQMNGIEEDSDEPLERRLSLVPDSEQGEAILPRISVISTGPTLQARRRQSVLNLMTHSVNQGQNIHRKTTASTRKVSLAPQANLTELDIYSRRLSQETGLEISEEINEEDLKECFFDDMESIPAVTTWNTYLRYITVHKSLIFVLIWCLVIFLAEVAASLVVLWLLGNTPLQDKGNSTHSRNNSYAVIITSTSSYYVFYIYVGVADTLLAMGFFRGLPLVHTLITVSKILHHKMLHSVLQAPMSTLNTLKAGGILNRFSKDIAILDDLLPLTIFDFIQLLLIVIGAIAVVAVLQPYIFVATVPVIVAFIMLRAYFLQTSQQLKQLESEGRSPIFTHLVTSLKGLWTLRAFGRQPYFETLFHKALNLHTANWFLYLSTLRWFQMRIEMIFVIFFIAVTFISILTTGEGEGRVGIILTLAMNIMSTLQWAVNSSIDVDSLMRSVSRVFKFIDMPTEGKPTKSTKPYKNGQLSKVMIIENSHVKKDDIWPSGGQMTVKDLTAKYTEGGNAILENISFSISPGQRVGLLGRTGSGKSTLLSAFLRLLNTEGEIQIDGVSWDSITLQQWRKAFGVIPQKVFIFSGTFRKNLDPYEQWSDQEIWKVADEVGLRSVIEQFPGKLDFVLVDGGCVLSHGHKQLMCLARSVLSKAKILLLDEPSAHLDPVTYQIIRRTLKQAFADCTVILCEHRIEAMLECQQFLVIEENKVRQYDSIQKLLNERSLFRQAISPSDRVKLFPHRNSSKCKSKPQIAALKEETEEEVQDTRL

Row | SMILES | Ent. B Max Activity (CFTR [1]; Table 8) | EC50 (CFTR [1]; [4]) [µM] | also measured
1 | Cc1cccc(C)c1-c1cc2nc(n1)NS(=O)(=O)c1cccc(c1)C(=O)N(Cc1ncccn1)[C@H](CC(C)C)CO2 [Compound 77, (11R)-6-(2,6-Dimethylphenyl)-11-isobutyl-2,2-dioxo-12-(pyrimidin-2-ylmethyl)-9-oxa-2λ^6-thia-3,5,12,19-tetrazatricyclo[12.3.1.14,8]nonadeca-1(18),4(19),5,7,14,16-hexaen-13-one] |  |  | Ent. B Max Activity (CFTR [1]; Table 6): +++ (+++ is >60%); EC50 (CFTR [1]; [3]): < 1 µM; Ent. A Max Activity (CFTR [2]; Table 6): +++ (+++ is >60%); EC50 (CFTR [2]; [3]): < 1 µM
2 | COCCN1C(=O)c2cccc(c2)S(=O)(=O)Nc2nc(cc(-c3c(C)cccc3C)n2)OC[C@H]1CC(C)C [Compound 363] |  |  | Ent. B Max Activity (CFTR [1]; Table 6): +++ (+++ is >60%); EC50 (CFTR [1]; [3]): < 1 µM; Ent. A Max Activity (CFTR [2]; Table 6): +++ (+++ is >60%); EC50 (CFTR [2]; [3]): < 1 µM
3 | C=C(C)c1cnc(CN2C(=O)c3cccc(c3)S(=O)(=O)Nc3nc(cc(-c4c(C)cccc4C)n3)OC[C@H]2CC(C)(C)C)nc1 [Compound 1078] |  |  | Ent. B Max Activity (%) (CFTR [1]; Table 9): +++ (+++ is >600%); EC50 (CFTR [1]; Table 9): < 1 µM
4 | Cc1cccc(C)c1-c1cc2nc(n1)NS(=O)(=O)c1cccc(c1)C(=O)N([C@H](C)c1ccccc1)[C@H](CC(C)(C)C)CO2 [Compound 1079] | +++ (+++ is >60%) | < 1 | 
5 | Cc1cccc(C)c1-c1cc2nc(n1)NS(=O)(=O)c1cccc(c1)C(=O)N(Cc1ccc(C(C)(C)O)cn1)[C@H](CC(C)(C)C)CO2 [Compound 1082] | +++ (+++ is >60%) | < 1 | 
6 | Cc1cccc(C)c1-c1cc2nc(n1)NS(=O)(=O)c1cccc(n1)C(=O)N(Cc1cccnc1)[C@H](CC(C)(C)C)CO2 [Compound 1083] | +++ (+++ is >60%) | < 1 | 
7 | Cc1cccc(C)c1-c1cc2nc(n1)NS(=O)(=O)c1cccc(n1)C(=O)N(Cc1ccccn1)[C@H](CC(C)(C)C)CO2 [Compound 1084] | +++ (+++ is >60%) | < 1 | 
8 | Cc1cccc(C)c1-c1cc2nc(n1)NS(=O)(=O)c1cccc(n1)C(=O)N(Cc1ccccc1)[C@H](CC(C)(C)C)CO2 [Compound 1085] | +++ (+++ is >60%) | < 1 | 
9 | Cc1cccc(C)c1-c1cc2nc(n1)NS(=O)(=O)c1cccc(c1)C(=O)N(Cc1cccnc1)[C@H](CC(C)(C)C)CO2 [Compound 1086] | +++ (+++ is >60%) | < 1 | 
10 | Cc1cccc(C)c1-c1cc2nc(n1)NS(=O)(=O)c1cccc(c1)C(=O)N(Cc1ccccc1)[C@H](CC(C)(C)C)CO2 [Compound 1087] | +++ (+++ is >60%) | < 1 | 
11 | Cc1cccc(C)c1-c1cc2nc(n1)NS(=O)(=O)c1cccc(c1)C(=O)N(Cc1ccnc(NC(=O)OC(C)C)c1)[C@H](CC(C)(C)C)CO2 [Compound 1088] | +++ (+++ is >60%) | < 1 | 
12 | Cc1cccc(C)c1-c1cc2nc(n1)NS(=O)(=O)c1cccc(c1)C(=O)N(Cc1ccc(C(C)(C)O)nc1)[C@H](CC(C)(C)C)CO2 [Compound 1089] | +++ (+++ is >60%) | < 1 | 
13 | Cc1cccc(C)c1-c1cc2nc(n1)NS(=O)(=O)c1cccc(n1)C(=O)N(Cc1cccnn1)[C@H](CC(C)(C)C)CO2 [Compound 1090] | +++ (+++ is >60%) | < 1 | 
14 | Cc1cccc(C)c1-c1cc2nc(n1)NS(=O)(=O)c1cccc(n1)C(=O)N(Cc1ccncn1)[C@H](CC(C)(C)C)CO2 [Compound 1091] | +++ (+++ is >60%) | < 1 | 
15 | Cc1cccc(C)c1-c1cc2nc(n1)NS(=O)(=O)c1cccc(n1)C(=O)N(Cc1ccc(C(C)(C)O)cc1)[C@H](CC(C)(C)C)CO2 [Compound 1092] | +++ (+++ is >60%) | < 1 | 
16 | Cc1cccc(C)c1-c1cc2nc(n1)NS(=O)(=O)c1cccc(c1)C(=O)N(CCCC(C)(C)O)[C@H](CC(C)(C)C)CO2 [Compound 1093] | +++ (+++ is >60%) | < 1 | 
17 | Cc1cccc(C)c1-c1cc2nc(n1)NS(=O)(=O)c1cccc(c1)C(=O)N(Cc1ccc(C(C)(C)O)cc1)[C@H](CC(C)(C)C)CO2 [Compound 1094] | +++ (+++ is >60%) | < 1 | 

Row | SMILES | Ent. B Max Activity (CFTR [1]; Table 8) | EC50 (CFTR [1]; [4]) [µM] | also measured
18 | Cc1cccc(C)c1-c1cc2nc(n1)NS(=O)(=O)c1cccc(c1)C(=O)N(Cc1cncnc1)[C@H](CC(C)(C)C)CO2 [Compound 1095] | +++ (+++ is >60%) | < 1 | 
19 | Cc1cccc(C)c1-c1cc2nc(n1)NS(=O)(=O)c1cccc(c1)C(=O)N(Cc1cnc(O)nc1)[C@H](CC(C)(C)C)CO2 [Compound 1096] | + (+ is <30%) |  | 
20 | Cc1cccc(C)c1-c1cc2nc(n1)NS(=O)(=O)c1cccc(c1)C(=O)N(Cc1ccc(O)nn1)[C@H](CC(C)(C)C)CO2 [Compound 1097] | ++ (++ is 30-60%) | < 1 | 
21 | Cc1cccc(C)c1-c1cc2nc(n1)NS(=O)(=O)c1cccc(c1)C(=O)N(Cc1ccncn1)[C@H](CC(C)(C)C)CO2 [Compound 1098] | +++ (+++ is >60%) | < 1 | 
22 | COc1cnc(CN2C(=O)c3cccc(c3)S(=O)(=O)Nc3nc(cc(-c4c(C)cccc4C)n3)OC[C@H]2CC(C)(C)C)cn1 [Compound 1099] | +++ (+++ is >60%) | < 1 | 
23 | Cc1cccc(C)c1-c1cc2nc(n1)NS(=O)(=O)c1cccc(c1)C(=O)N(Cc1cnccn1)[C@H](CC(C)(C)C)CO2 [Compound 1100] | +++ (+++ is >60%) | < 1 | 
24 | COc1ncc(CN2C(=O)c3cccc(c3)S(=O)(=O)Nc3nc(cc(-c4c(C)cccc4C)n3)OC[C@H]2CC(C)(C)C)cn1 [Compound 1101] | +++ (+++ is >60%) | < 1 | 
25 | Cc1cccc(C)c1-c1cc2nc(n1)NS(=O)(=O)c1cccc(c1)C(=O)N(Cc1cccc(CN(C)C)c1)[C@H](CC(C)C)CO2 [Compound 1102] | +++ (+++ is >60%) | < 1 | 
26 | Cc1cccc(C)c1-c1cc2nc(n1)NS(=O)(=O)c1cccc(c1)C(=O)N(CCOC(F)(F)F)[C@H](CC(C)C)CO2 [Compound 1103] |  |  | Ent. B Max Activity (CFTR [1]; Table 7): +++ (+++ is >60%); EC50 (CFTR [1]; [5]): < 1 µM
27 | Cc1cccc(C)c1-c1cc2nc(n1)NS(=O)(=O)c1cccc(c1)C(=O)N(CC#N)[C@H](CC(C)C)CO2 [Compound 1104] |  |  | Ent. B Max Activity (CFTR [1]; Table 7): +++ (+++ is >60%); EC50 (CFTR [1]; [5]): < 1 µM
28 | Cc1cccc(C)c1-c1cc2nc(n1)NS(=O)(=O)c1cccc(c1)C(=O)N(CCC(C)(C)C#N)[C@H](CC(C)C)CO2 [Compound 1105] |  |  | Ent. B Max Activity (CFTR [1]; Table 7): +++ (+++ is >60%); EC50 (CFTR [1]; [5]): < 1 µM
29 | Cc1cccc(C)c1-c1cc2nc(n1)NS(=O)(=O)c1cccc(c1)C(=O)N(Cc1ccncc1)[C@H](CC(C)C)CO2 [Compound 1106] |  |  | Ent. B Max Activity (CFTR [1]; Table 7): ++ (++ is 30-60%); EC50 (CFTR [1]; [5]): 1 to 3 µM; Ent. A Max Activity (CFTR [2]; Table 7): +++ (+++ is >60%); EC50 (CFTR [2]; [5]): 1 to 3 µM
30 | Cc1cccc(C)c1-c1cc2nc(n1)NS(=O)(=O)c1cccc(c1)C(=O)N(Cc1ccc(C(=O)N(C)C)cn1)[C@H](CC(C)(C)C)CO2 [Compound 1110] | +++ (+++ is >60%) | < 1 | 
31 | Cc1cccc(C)c1-c1cc2nc(n1)NS(=O)(=O)c1cccc(c1)C(=O)N(CCC1(C(F)(F)F)CC1)[C@@H]1CN(C3CC4(CCCCC4)C3)C[C@H]1O2 [Compound 1190, (3R,7R)-19-(2,6-Dimethylphenyl)-5-{spiro[3.5]nonan-2-yl}-8-{2-[1-(trifluoromethyl)cyclopropyl]ethyl}-2-oxa-15λ^6-thia-5,8,16,18,21-pentaazatetracyclo[15.3.1.110,14.03,7]docosa-1(20),10(22),11,13,17(21),18-hexaene-9,15,15-trione] |  |  | Ent. B Max Activity (%) (CFTR [1]; Table 9): ++ (++ is 30-60%); EC50 (CFTR [1]; Table 9): < 1 µM
32 | Cc1cccc(C)c1-c1cc2nc(n1)NS(=O)(=O)c1cccc(c1)C(=O)N(CCC1CCOCC1)[C@@H]1CN(C3CC4(CCCC4)C3)C[C@H]1O2 [Compound 1191, (3R,7R)-19-(2,6-Dimethylphenyl)-8-[2-(oxan-4-yl)ethyl]-5-{spiro[3.4]octan-2-yl}-2-oxa-15λ^6-thia-5,8,16,18,21-pentaazatetracyclo[15.3.1.110,14.03,7]docosa-1(20),10(22),11,13,17(21),18-hexaene-9,15,15-trione] |  |  | Ent. B Max Activity (%) (CFTR [1]; Table 9): +++ (+++ is >600%); EC50 (CFTR [1]; Table 9): < 1 µM
33 | CCN1C(=O)c2cccc(c2)S(=O)(=O)Nc2nc(cc(-c3c(C)cccc3C)n2)O[C@@H]2CN(C3CC4(CCCC4)C3)C[C@H]21 [Compound 1192, (3R,7R)-19-(2,6-Dimethylphenyl)-8-ethyl-5-{spiro[3.4]octan-2-yl}-2-oxa-15λ^6-thia-5,8,16,18,21-pentaazatetracyclo[15.3.1.110,14.03,7]docosa-1(20),10(22),11,13,17(21),18-hexaene-9,15,15-trione] |  |  | Ent. B Max Activity (%) (CFTR [1]; Table 9): ++ (++ is 30-60%); EC50 (CFTR [1]; Table 9): < 1 µM; Ent. A Max Activity (%) (CFTR [2]; Table 9): +++ (+++ is >600%); EC50 (CFTR [2]; Table 9): < 1 µM
